In brackets after ≈: the same amount, converted by molar mass.
System: P388
Experiment: Cytotoxicity against mouse P388 cells
Assay type: functional, cell-based

C=C1OC(=O)[C@@]2([C@H](/C=C/[C@H](C)C[C@H](C)CC)C=C[C@@H](O)[C@@H]2O)[C@H]1O [SPIROLEPHTOSHOL]
EC50: 20 µg/mL (≈ 59.4 µM)

— ChEMBL document CHEMBL1157500, “Spiroleptosphol isolated from Leptosphaeria doliolum” (Bioorg Med Chem Lett, 2008)
